Measurements from US5614620A, “DNA binding proteins including androgen receptor” (Arch Development Corporation, priority 1993, dated 1997).

Legend:
[1] = test system: AR mRNA; experiment: AR mRNA level in ventral prostate of castrated rats (RNA dot hybridization and Northern blot); type: in vivo; settings: 5 mg/rat/day
Procedure: (§1) Because rat ventral prostate is an androgen-sensitive organ and contains the greatest amount of AR and TR2 mRNA, the effect of androgen depletion and replacement on the mRNA levels was studied by RNA dot hybridization and Northern blot analysis. […] Urol., 10:123 (1972)], was injected into normal rats for from 2 to 6 days. TR2 mRNA levels were then measured by dot hybridization as described above.

[2] = test system: TR2 mRNA; experiment: TR2 mRNA level in rat ventral prostate (RNA dot hybridization and Northern blot); type: in vivo
Procedure: as §1

[3] = test system: human androgen receptor; settings: Govindan, et al.; cited from earlier work
[4] = test system: ventral prostate; settings: castrated rats; Neri, et al.; cited from earlier work
[5] = target: T1, 79 kD hAR protein (Homo sapiens, UniProt P10275); experiment: competition of non-radioactive steroids with [^3 H] R1881 binding to hAR made in reticulocyte lysate (hydroxylapatite-filter method)
T1 construct: T7 transcript translated in rabbit reticulocyte lysate; untagged
T1 sequence (P10275 191-920): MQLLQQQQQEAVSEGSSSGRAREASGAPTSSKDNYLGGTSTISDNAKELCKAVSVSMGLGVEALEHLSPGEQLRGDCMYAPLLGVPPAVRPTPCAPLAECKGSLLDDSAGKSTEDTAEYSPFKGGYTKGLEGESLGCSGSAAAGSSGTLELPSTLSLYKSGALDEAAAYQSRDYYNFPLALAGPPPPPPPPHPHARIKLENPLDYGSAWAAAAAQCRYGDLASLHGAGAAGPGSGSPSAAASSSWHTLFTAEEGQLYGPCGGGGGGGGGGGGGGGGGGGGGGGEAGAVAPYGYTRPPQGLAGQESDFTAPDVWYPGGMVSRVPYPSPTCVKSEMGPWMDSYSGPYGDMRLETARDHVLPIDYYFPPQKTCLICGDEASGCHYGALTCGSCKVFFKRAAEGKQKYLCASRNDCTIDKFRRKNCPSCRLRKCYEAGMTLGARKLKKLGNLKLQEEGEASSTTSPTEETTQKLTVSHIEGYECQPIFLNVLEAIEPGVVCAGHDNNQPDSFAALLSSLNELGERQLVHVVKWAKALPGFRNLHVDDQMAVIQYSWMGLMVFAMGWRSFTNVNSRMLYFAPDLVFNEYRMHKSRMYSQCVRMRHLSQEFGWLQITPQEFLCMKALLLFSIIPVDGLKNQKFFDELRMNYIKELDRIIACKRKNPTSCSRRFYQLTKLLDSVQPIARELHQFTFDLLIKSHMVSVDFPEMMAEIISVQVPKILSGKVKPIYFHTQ

[6] = test system: AR; settings: Liao, et al. (1973); cited from earlier work
[7] = test system: hAR in NIH 3T3 cells; settings: 6 of about 100 individual cell lines
Description: The expression of cloned AR-genes was achieved as follows in a eukaryotic system. NIH 3T3 cells, contact-inhibited cells established from NIH Swiss mouse embryo, were co-transfected with hAR cDNA inserted into pBPVMTH vectors as described by Gorman, "DNA Cloning", 2:143-190 D. M. Glover, ed.; (Oxford, Washington, D.C. 1985). Transfected cells were cloned and grown in multiple-well cell culture plates. About 100 individual cell lines were isolated.

[8] = target: AR of rat ventral prostate; settings: read-out: binding constant reported previously, Schilling, et al.; cited from earlier work

Which “AR mRNA level” value [1] does the source give for C[C@]12CCC(=O)C[C@@H]1CC[C@@H]1[C@@H]2CC[C@]2(C)[C@@H](O)CC[C@@H]12 [5α-dihydrotestosterone, 17β-hydroxy-5α-androstan-3-one] here?
The value was “reduced the AR mRNA level to that of normal rats”.

And the “TR2 mRNA level” value ([2]; castrated rats, injection, 5 mg/rat/day)?
Its value is “reduced the TR2 mRNA to the levels of normal rats”.

Which “binding of tritium-labelled DHT (in words)” value [3] does the source give for C[C@]12CCC(=O)C[C@@H]1CC[C@@H]1[C@@H]2CC[C@]2(C)[C@@H](O)CC[C@@H]12 [DHT, dihydrotestosterone] here?
Its value is “with high affinity and specificity”.

With CC(C)C(=O)Nc1ccc([N+](=O)[O-])c(C(F)(F)F)c1 [Flutamide] as the compound, how does the “effect on 5α-dihydrotestosterone action on ventral prostate weights” value [4] read?
The value was “antagonizes the effects of 5α-dihydrotestosterone on the ventral prostate weights in castrated rats”.

What about the “TR2 mRNA level” value ([2]; normal rats, injected for from 2 to 6 days) of the same compound?
The value was “increased TR2 mRNA levels”.

With C[C@]12CCC(=O)C=C1CC[C@@H]1[C@@H]2[C@@H](O)C[C@@]2(C)[C@H]1CC[C@]2(O)C(=O)CO [Hydrocortisone] as the compound, how does the “competition with [^3 H] R1881 binding (in words)” value ([5]; 79 kD protein, reticulocyte lysate) read?
Its value is “did not compete well”.

And the remaining activity at 0.05 µM ([5]; read-out: [^3 H] R1881-bound (% of control))?
The remaining activity at 0.05 µM was 90%.

What does the source list for C[C@]1(O)CC[C@H]2[C@@H]3CCC4=CC(=O)CCC4=C3C=C[C@@]21C [R1881, 17α-methyl-17β-hydroxy-estra-4,9,11-trien-3-one]?
AR binding affinity (in words) [6]: binds AR with high affinity; [^3 H] R1881-bound (% of control) ([5]; reticulocyte lysate har, 0.05 µM): 10 % of control

Which results are given for C[C@]1(O)CC[C@H]2[C@@H]3CCC4=CC(=O)CCC4=C3C=C[C@@]21C [[^3 H] R1881, 17α[^3 H]-methyl-17β-hydroxy-estra-4,9,11-trien-3-one]?
[^3 H] R1881-binding activity relative to cells transfected with pSV2 vector alone [7]: at least 4 fold; Kd [8]: 0.65 nM
